Consider eight molecules from BindingDB's records for patent US10364255 (Boehringer Ingleheim International, 2019).

Broadly, the IC50 is the point on the concentration scale where inhibition reaches its midpoint. Read a high IC50 as weaker potency in that assay.

T1 sequence (O95497 22-491 T26I limits assumed): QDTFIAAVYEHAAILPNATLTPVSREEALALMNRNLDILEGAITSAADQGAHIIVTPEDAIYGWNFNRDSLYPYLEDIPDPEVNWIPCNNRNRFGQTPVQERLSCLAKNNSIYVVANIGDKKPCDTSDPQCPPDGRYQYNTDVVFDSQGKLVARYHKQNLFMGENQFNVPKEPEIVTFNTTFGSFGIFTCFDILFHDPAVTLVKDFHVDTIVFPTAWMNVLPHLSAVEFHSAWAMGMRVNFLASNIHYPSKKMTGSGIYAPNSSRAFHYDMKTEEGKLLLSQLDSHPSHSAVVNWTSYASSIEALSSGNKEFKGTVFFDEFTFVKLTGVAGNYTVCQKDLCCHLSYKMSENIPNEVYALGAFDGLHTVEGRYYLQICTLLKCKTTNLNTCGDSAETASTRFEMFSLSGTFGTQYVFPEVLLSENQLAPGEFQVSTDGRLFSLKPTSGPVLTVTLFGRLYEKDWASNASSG

The assay addresses T1, Pantetheinase [T26I] (Homo sapiens, UniProt O95497, T26I).
T1 construct: gene VNN1
The experiment in a line: Enzymatic Assay. The protocol:
Method 1:Vanin-1 Enzymatic Assay:The test compounds are dissolved in 100% DMSO at a concentration of 10 mM and in a first step diluted in DMSO to a concentration of 5 mM, followed by serial dilution steps in 100% DMSO. Dilution factor and number of dilution steps may vary according to needs. Typically 8 different concentrations by 1:5 dilutions are prepared, a further intermediate dilutions of the substances is carried out with assay buffer resulting in 1% final DMSO concentration in the assay. 0.15 nM of FLAG-tagged Vanin-1 (AA 22-493, T26I, produced internally) and test compounds are incubated at room temperature for 15 minutes in assay buffer (1 mM DTT, 0.0025% Brij-35, 50 mM HEPES, pH7.5). 3 μM D-Pantethine (Sigma, Cat#P2125-5G) in assay buffer is added and incubated for additional 30 minutes at room temperature. Reaction is stopped by adding equal volume of stop solution as the reaction mixture to reach 5 nM Nevirapine (as an internal standard) and 0.5% TFA. Assay plates are centrifuged for 2 minutes and the formation of pantothenic acid is detected by RapidFire Mass Spectrometry (mobile phase A: 0.1% formic acid in water, mobile phase B: 100% methanol) using graphitic carbon cartridge (Agilent Cat #G9206A).
`O=C(c1cnc2c(c1)O[C@H](CO)CN2)N1CCC(c2ccncc2)C1` (stereo partly drawn) [US10364255, Ex. 43]: the IC50 was found to be 3.7 nM.

In turn, `CC(=O)N(C)[C@H]1CCN(C(=O)c2cnc3c(c2)O[C@H](C)CN3)C1` [US10364255, Ex. 32] returned an IC50 of 1.3 nM.

For the molecule `CC(=O)N(C)[C@H]1CCN(C(=O)c2cnc3c(c2)OCC(C)(C)N3)C1` [US10364255, Ex. 14], half-maximal inhibition (IC50) required 0.5 nM.

`CC(=O)N(C)[C@H]1CCN(C(=O)c2cnc3c(c2)OCCCN3)C1` [US10364255, Ex. 44] gave an IC50 of 1.7 nM.

Take `CC(=O)N(C)[C@H]1CCN(C(=O)c2cnc3c(c2)OCCN3)C1` [US10364255, Ex. 39]: half-maximal inhibition (IC50) required 8.1 nM.

As to `CC(=O)N(C)[C@H]1CCN(C(=O)c2cnc3c(c2)O[C@H](CO)CN3)C1` [US10364255, Ex. 41], the IC50 stood at 2.5 nM.

In turn, `O=C(c1cnc2c(c1)OCCN2)N1CCCCC1` [US10364255, Ex. 3] displayed an IC50 of 2800 nM.

`O=C(c1cnc2c(c1)OCCN2)N1CCC(c2ccncc2)C1` (stereo not drawn) [US10364255, Ex. 38] displayed an IC50 of 14.2 nM.
